US11028077B2, “Crystalline pharmaceutical and methods of preparation and use thereof” (NOVARTIS PHARMACEUTICALS CORPORATION, priority 2008, dated 2021)

Test system: tester strains
Test: In vitro Ames bacterial reverse mutation assay
Assay type: cell-based
Conditions: presence or absence of microsomal (S9) enzymes
Description: Therefore, the compound of Formula I was judged to be not mutagenic.

CS(=O)(=O)c1cccc(C[C@H](NC(=O)c2c(Cl)cc3c(c2Cl)CCN(C(=O)c2ccc4ccoc4c2)C3)C(=O)O)c1 [compound of Formula I]
mutagenicity (revertants per plate): not mutagenic
